From patent US12540141B2, “Spiropyrrolidine derived antiviral agents” (priority 2020, dated 2026)
pIC50: −log10 of the molar value.

Target: SARS-CoV-2 3CL-protease (Severe acute respiratory syndrome coronavirus 2, UniProt P0DTD1)
Test: SARS-CoV-2 3C-Like (3CL) Protease Fluorescence Assay (FRET)
Type: biochemical
Settings: SARS-CoV-2 3CL-protease 10 nM, 30 min preincubation at RT, substrate 40 μM

| Structure (SMILES) | pIC50 |
| --- | --- |
| Cc1c(C(=O)N[C@@H](CC2CC2)C(=O)N2C[C@]3(C[C@H]2C#N)C(=O)Nc2ccc(F)cc23)sc2cccc(F)c12 [Example 521] | > 7.00 |
| CC(C)C[C@@H](C(=O)N1C[C@]2(C[C@H]1C#N)C(=O)Nc1ccccc12)N(C)C(=O)c1cnc2cnccc2c1 [Example 301] | > 7.00 |
| Cc1cc(C)c2ccc(C(=O)N(C)[C@@H](CC(C)C)C(=O)N3C[C@]4(C[C@H]3C#N)C(=O)Nc3ccccc34)nc2c1O [Example 259] | 6.00 to 7.00 |
| Cc1cccc(C(F)(F)C(=O)N(C)[C@@H](CC(C)(C)F)C(=O)N2C[C@]3(C[C@H]2C#N)C(=O)Nc2ccc(Cl)cc23)n1 [Example 486] | > 7.00 |
| CC(C)C[C@@H](C(=O)N1C[C@]2(C[C@H]1C#N)C(=O)Nc1ccccc12)N(C)C(=O)c1ccc2c(Br)cccc2n1 [Example 231] | 6.00 to 7.00 |
| CC(C)C[C@@H](C(=O)N1C[C@]2(C[C@H]1C(=O)C(=O)NC1CCCCC1)C(=O)Nc1ccccc12)N(C)C(=O)c1cc2c(F)cc(F)cc2[nH]1 [Example 155] | < 6.00 |
| C[C@H](OC(=O)N[C@@H](CC(C)(C)C)C(=O)N1C[C@]2(C[C@H]1C#N)C(=O)Nc1ccc(F)cc12)c1ccc(F)cc1 [Example 524] | > 7.00 |
| CNCCC(=O)N(C)[C@@H](CC(C)(C)F)C(=O)N1C[C@]2(C[C@H]1C#N)C(=O)Nc1ccccc12 [Example 543] | > 7.00 |
| CN(C(=O)c1cn(-c2ccc(F)cc2)nn1)[C@@H](Cc1ccccc1)C(=O)N1C[C@]2(C[C@H]1C#N)C(=O)Nc1ccccc12 [Example 357] | > 7.00 |
| CC(C)C[C@@H](C(=O)N1C[C@]2(C[C@H]1C#N)C(=O)Nc1ccc(C#C[Si](C)(C)C)cc12)N(C)C(=O)c1cc2c(F)cc(F)cc2[nH]1 [Example 509] | > 7.00 |
| CC(C)C[C@@H](C(=O)N1C[C@]2(C[C@H]1C#N)C(=O)Nc1ccc(-c3cn(-c4ccccn4)nn3)cc12)N(C)C(=O)c1cc2c(F)cc(F)cc2[nH]1 [Example 507] | > 7.00 |
| Cc1cc2cc(C(=O)N[C@@H](CC(C)(C)C)C(=O)N3C[C@]4(C[C@H]3C#N)C(=O)Nc3ccccc34)cc(Cl)c2nc1C [Example 147] | > 7.00 |
| CN(C(=O)c1cc2c(F)cc(F)c(F)c2[nH]1)[C@@H](CC(C)(C)F)C(=O)N1C[C@]2(C[C@H]1C#N)C(=O)Nc1cccnc12 [Example 552] | > 7.00 |
| CC(C)C[C@@H](C(=O)N1C[C@]2(C[C@H]1C#N)C(=O)Nc1ccccc12)N(C)C(=O)c1cc(F)ccn1 [Example 197] | 6.00 to 7.00 |
| CC(C)C[C@@H](C(=O)N1C[C@]2(C[C@H]1C#N)C(=O)Nc1ccccc12)N(C)C(=O)c1ccnc2ccccc12 [Example 294] | > 7.00 |
| CC(C)C[C@@H](C(=O)N1C[C@]2(C[C@H]1C(=O)O)C(=O)Nc1ccc(Cl)cc12)N(C)C(=O)c1cc2c(F)cc(F)cc2[nH]1 [Example 497, (3R,5′S)-5-chloro-1′-(N-(4,6-difluoro-1H-indole-2-carbonyl)-N-methyl-L-leucyl)-2-oxospiro[indoline-3,3′-pyrrolidine]-5′-carboxylic acid] | < 6.00 |
| CC(C)C[C@@H](C(=O)N1C[C@]2(C[C@H]1C#N)C(=O)Nc1ccccc12)N(C)C(=O)c1cc2ccc(C(C)C)nc2[nH]1 [Example 491] | > 7.00 |
| CC(C)(C)C[C@H](NC(=O)Nc1ccccc1)C(=O)N1C[C@]2(C[C@H]1C#N)C(=O)Nc1ccccc12 [Example 435] | 6.00 to 7.00 |
| N#C[C@@H]1C[C@@]2(CN1C(=O)[C@H](CC1CC1)NC(=O)c1c(Cl)cccc1Cl)C(=O)Nc1ccc(F)cc12 [Example 522] | 6.00 to 7.00 |

| Structure (SMILES) | pIC50 |
| --- | --- |
| CN(C(=O)[C@H](O)C(C)(C)C)[C@@H](CC1CC1)C(=O)N1C[C@]2(C[C@H]1C#N)C(=O)Nc1ccccc12 [Example 417] | > 7.00 |
| CC(C)C[C@@H](C(=O)N1C[C@]2(C[C@H]1C#N)C(=O)Nc1ccccc12)N(C)C(=O)c1cc(OC2CC2)n2nc(C3CC3)cc2c1 [Example 315] | > 7.00 |
| CC(C)C[C@@H](C(=O)N1C[C@]2(C[C@H]1C#N)C(=O)Nc1ccccc12)N(C)C(=O)c1cc2cccc(C(F)(F)F)c2[nH]1 [Example 336] | > 7.00 |
| CC(C)C[C@@H](C(=O)N1C[C@]2(C[C@H]1C#N)C(=O)Nc1ccccc12)N(C)C(=O)COc1ccccc1 [Example 229] | > 7.00 |
| CC(C)C[C@@H](C(=O)N1C[C@]2(C[C@H]1C#N)C(=O)Nc1ccccc12)N(C)C(=O)c1ccncc1 [Example 194] | 6.00 to 7.00 |
| CC(C)C[C@@H](C(=O)N1C[C@]2(C[C@H]1C#N)C(=O)Nc1ccc(-c3ccncc3)cc12)N(C)C(=O)c1cc2c(F)cc(F)cc2[nH]1 [Example 510] | > 7.00 |
| CC(C)C[C@@H](C(=O)N1C[C@]2(C[C@H]1C#N)C(=O)Nc1ccccc12)N(C)C(=O)c1cc2cccc(F)c2[nH]1 [Example 325] | > 7.00 |
| CC(C)C[C@@H](C(=O)N1C[C@]2(C[C@H]1C#N)C(=O)Nc1ccccc12)N(C)C(=O)c1cccc(-c2ccccc2F)c1 [Example 264] | 6.00 to 7.00 |
| CC(C)C[C@@H](C(=O)N1C[C@]2(C[C@H]1C#N)C(=O)Nc1ccccc12)N(C)C(=O)c1cc(OC2CC2)c2ncc(C3CC3)cc2c1 [Example 324] | 6.00 to 7.00 |
| CC(C)C[C@@H](C(=O)N1C[C@]2(C[C@H]1C#N)C(=O)Nc1ccccc12)N(C)C(=O)c1cn(-c2ccccn2)nn1 [Example 267] | > 7.00 |
| CC(C)C[C@@H](C(=O)N1C[C@]2(C[C@H]1C#N)C(=O)Nc1ccccc12)N(C)C(=O)c1cccc(F)c1Cl [Example 164] | > 7.00 |
| COc1ccc2[nH]c(C(=O)N(C)[C@@H](CC(C)C)C(=O)N3C[C@]4(C[C@H]3C#N)C(=O)Nc3ccccc34)nc2c1 [Example 249] | > 7.00 |
| [2H]C([2H])([2H])N(C(=O)c1cnn(-c2ccc(C(F)(F)F)cc2)c1)[C@@H](CC1CC1)C(=O)N1C[C@]2(C[C@H]1C#N)C(=O)Nc1ccccc12 [Example 396] | > 7.00 |
| COc1cccc2[nH]c(C(=O)N(C)[C@@H](COC(C)(C)C)C(=O)N3C[C@]4(C[C@H]3C#N)C(=O)Nc3ccccc34)cc12 [Example 370] | > 7.00 |
| CC(C)C[C@@H](C(=O)N1C[C@]2(C[C@H]1C#N)C(=O)Nc1ccc(-n3cc(C4CC4)nn3)cc12)N(C)C(=O)c1cc2c(F)cc(F)cc2[nH]1 [Example 505, N—((S)-1-((3R,5′S)-5′-cyano-5-(4-cyclopropyl-1H-1,2,3-triazol-1-yl)-2-oxospiro[indoline-3,3′-pyrrolidin]-1′-yl)-4-methyl-1-oxopentan-2-yl)-4,6-difluoro-N-methyl-1H-indole-2-carboxamide] | > 7.00 |
| CC(C)C[C@@H](C(=O)N1C[C@]2(C[C@H]1C#N)C(=O)Nc1ccccc12)N(C)C(=O)c1ccc2ncc(F)cc2c1 [Example 235] | > 7.00 |
| Cc1ccc2c(c1)[C@@]1(C[C@@H](C#N)N(C(=O)[C@H](CC(C)C)N(C)C(=O)OCc3ccccc3)C1)C(=O)N2 [Example 518, benzyl ((S)-1-((3R,5′S)-5′-cyano-5-methyl-2-oxospiro[indoline-3,3′-pyrrolidin]-1′-yl)-4-methyl-1-oxopentan-2-yl)(methyl)carbamate] | > 7.00 |
| CC(C)(C)OC(=O)NC[C@H](NC(=O)c1cc2c(F)cc(F)cc2[nH]1)C(=O)N1C[C@]2(C[C@H]1C#N)C(=O)Nc1ccccc12 [Example 128] | < 6.00 |
| CC(C)C[C@@H](C(=O)N1C[C@]2(C[C@H]1C#N)C(=O)Nc1ccccc12)N(C)C(=O)c1cnc2ccccc2c1O [Example 260] | 6.00 to 7.00 |
